The values below are quoted from earlier work in patent US9861579B2, “Foamable formulation” (Nuvo Pharmaceuticals Inc., priority 2010, dated 2018).

Take `CC(C)Cc1ccc(C(C)C(=O)O)cc1` (racemic) [Ibuprofen, 2-(4-isobutylphenyl) propanoic acid]: the “log P” value is on record as 3.6. Under “practically insoluble in water”, the solubility in water was less than 0.1 mg/mL.

What is called log P is a log measure of how a compound divides between an organic and an aqueous phase.
